# Test results as given in patent US7825092B2, “Dendroaspis natriuretic peptide for treatment of cancer” (University of South Florida, priority 2006, dated 2010).
# Tests used:
# human glioblastoma cells = test: DNA synthesis by bromodeoxyuridine (BrdU) incorporation; format: cell-based; conditions: 1 μM, 24 hours
# Procedure: To investigate whether these peptide hormones were inhibiting DNA synthesis, bromodeoxyuridine (BrdU) incorporation into the human glioblastoma cells was utilized as previously described from our laboratory. BrdU was from BD Bioscience, San Jose, Calif. After 24 hours in culture with 1 μM of LANP, vessel dilator, kaliuretic peptide, ANP, and DNP, respectively, or with no peptide hormone (i.e., control), BrdU in a final concentration of 10 μM in the cell culture medium was added for 45 minutes, which is the time in which the cells are in the logarithmic phase of cell proliferation.
# (§1) The data obtained in this investigation are illustrated as mean±SEM. Maximum changes in cell death (evaluated six times with ten areas of microscope slide evaluated each time) and DNA synthesis within groups were determined by a paired one-tailed Student's t test evaluated with statistical module of Excel software. To be considered statistically significant, we required a probability value to be <0.05 (95% confidence limits).
# [1] = system: small-cell lung cancer cells; conditions: 1 μM; cited from earlier work
# [2] = system: human glioblastoma cells (ATCC number CRL-11543); test: number of human glioblastoma cells counted after incubation with peptide hormones; format: cell-based; conditions: for decrease in number of human glioblastoma cells compared to control: at 96 hours (three days after 24 hours exposure); for number of glioblastoma cancer cells remaining (per field): 24 hours, mean±SEM, control 130±3 cells
# Procedure: A cell line (ATCC number CRL-11543) of human glioblastoma cells were purchased from American Type Culture Collection (ATCC, Manassas, Va.). This glioblastoma cell line was deposited by the Ludwig Institute for Cancer Research, University of California at San Diego, La Jolla, Calif. This glioblastoma cell line produces angiogensis inhibiting factor.
# Propagation of these human glioblastoma cells was in Dulbecco's modified Eagle's medium with 4 mM L-glutamine adjusted to contain 1.5 g/L sodium bicarconate and 4.5 g/L glucose supplemented with 1 μg/ml tetracycline, […], and 10% fetal bovine serum (Atlanta Biologicals, Lawrenceville, Ga.) at a temperature of 37° C. in a […] environment as recommended by the ATCC. Cells were dispensed in new flasks with subculturing two to three times per week.
# After the glioblastoma cells were subcultured for 24 hours they were then seeded to coverslips in 24-well plates (Nunclon™, Roskilde, Denmark) with 1 mL of the above media. There were 65,000 cells seeded to each coverslip. After 24 hours, the well plates were washed twice with phosphate-buffered saline to remove the fetal bovine serum. Removal of serum was carried out to completely remove all variables (EGF, etc.) present in serum in order that interpretation of any data obtained would be straightforward. After 24 hours of serum deprivation, media volume was reduced to 250 μL per well with, or without, the respective peptide hormones in dose-response curves with concentrations up to and including 100 μM (1% of this volume). Human glioblastoma cells were then incubated for various periods of time (24, 48, 72, and 96 hours). The number of glioblastoma carcinoma cells were then counted with a cell counter (Thomas Scientific, Swedesboro, N.J.) evaluating ten fields of the microscope slide at ×40 along the X-axis with an Olympus BH-2 microscope (Atlanta, Ga.). This evaluation was repeated on six separate occasions with the number of human glioblastoma cells reflecting 60 observations for each group, i.e., 60 observations for controls and 60 observations for each of the five groups with respective peptide hormones. The peptide hormones used in this investigation were from Phoenix Pharmaceuticals, Inc., Belmont, Calif. In the Results section, the number of cancer cells reported is the number of cells in each individual field. Ten fields were examined on each microscope slide. The results of the ten fields were pooled and the average of the ten fields is illustrated in the Results section.
# as §1
# [3] = human or animal subjects; cited from earlier work
# [4] = system: human prostate cancer cells; conditions: cited from earlier work
# [5] = system: human pancreatic adenocarcinoma cells; conditions: 1 μM; cited from earlier work
# [6] = system: human pancreatic adenocarcinomas; conditions: in one week, athymic mice; cited from earlier work
# human colon cancer cells = conditions: within 24 hours; cited from earlier work
# [7] = 1 μM, at 48 hours (24 hours exposure only)
# [8] = 1 μM, at 72 hours (24 hours exposure only)
# [9] = 10 μM, at 48 hours (24 hours exposure only)
# [10] = 10 μM, at 72 hours (24 hours exposure only)
# [11] = 100 μM, at 48 hours (24 hours exposure only)
# [12] = 100 μM, at 72 hours (24 hours exposure only)
Molecule,decrease in DNA synthesis (human glioblastoma cells),"decrease in number of human glioblastoma cells ([2]; 1 μM, at 24 hours)","decrease in number of human glioblastoma cells [2, 7]","decrease in number of human glioblastoma cells [2, 8]",decrease in number of human glioblastoma cells compared to control ([2]; 1 μM),"decrease in number of human glioblastoma cells ([2]; 10 μM, at 24 hours)","decrease in number of human glioblastoma cells [2, 9]","decrease in number of human glioblastoma cells [2, 10]",decrease in number of human glioblastoma cells compared to control ([2]; 10 μM),number of glioblastoma cancer cells remaining (per field) ([2]; 100 μM),"decrease in number of human glioblastoma cells ([2]; 100 μM, at 24 hours)","decrease in number of human glioblastoma cells [2, 11]","decrease in number of human glioblastoma cells [2, 12]",decrease in number of human glioblastoma cells compared to control ([2]; 100 μM),side effect hypotension [3],also measured
kaliuretic peptide,77%,33%,32%,32%,25%,51%,51%,52%,40%,43±2 cells,68%,68%,68%,64%,never,"decrease in small-cell lung cancer cells [1]: 30%; decrease in number of human glioblastoma cells ([2]; 1 μM, at 24 hours, listed as Kaliuretic peptide): 32%; decrease in prostate adenocarcinoma cells ([4]; 1 μM): 30%; decrease in human pancreatic adenocarcinoma cells [5]: 37%"
"CC[C@H](C)[C@@H]1NC(=O)[C@H](CCCNC(=N)N)NC(=O)[C@H](CC(=O)O)NC(=O)[C@H](CCSC)NC(=O)[C@H](CCCNC(=N)N)NC(=O)CNC(=O)CNC(=O)[C@H](Cc2ccccc2)NC(=O)[C@@H](NC(=O)[C@H](CO)NC(=O)[C@H](CO)NC(=O)[C@H](CCCNC(=N)N)NC(=O)[C@H](CCCNC(=N)N)NC(=O)[C@H](CC(C)C)NC(=O)[C@@H](N)CO)CSSC[C@@H](C(=O)N[C@@H](CC(N)=O)C(=O)N[C@@H](CO)C(=O)N[C@@H](Cc2ccccc2)C(=O)N[C@@H](CCCNC(=N)N)C(=O)N[C@@H](Cc2ccc(O)cc2)C(=O)O)NC(=O)CNC(=O)[C@H](CC(C)C)NC(=O)CNC(=O)[C@H](CO)NC(=O)[C@H](CCC(N)=O)NC(=O)[C@H](C)NC(=O)CNC1=O [ANP, atrial natriuretic peptide]",79%,–,–,–,24%,–,–,–,43%,–,–,–,–,60%,observed,–
vessel dilator,87%,53%,53%,53%,43%,60%,60%,60%,55%,33±2 cells,75%,76%,76%,68%,never,"decrease in tumor volume [6]: 49%; lower concentration causing the same decrease as the other peptide hormones ([2]; within 24 hours, FIG. 2): 10 fold; decrease in number of human prostate cancer cells, up to ([4]; within 24 hours): up to 97%; decrease in number of human colon cancer cells, up to (human colon cancer cells): up to 97%"
Dendroaspis natriuretic peptide [DNP],23%,–,1%,1%,1%,–,7%,6%,5%,–,17%,19%,19%,8%,–,"concentration where first began to have an effect on glioblastoma cells [2]: 100 µM; difference in concentration with significant anticancer effects, DNP versus human cardiac hormones ([2]; DNP higher, human cardiac hormones lower): 100 fold; killing / elimination of human glioblastoma cells, up to ([2]; within 24 hours, maximum effect, concentration not given): up to 19%"
"long acting natriuretic peptide (NPMYNAVSNADLMDFKNLLDHLEEKMPLED; Long-acting natriuretic peptide; UniProt P01160 26-55, looked up, fragment) [LANP, cardiac hormone, first 30 amino acids of the 126 a.a. atrial natriuretic peptide prohormone]",65%,31%,31%,31%,24%,49%,50%,50%,39%,43±2 cells,65%,65%,66%,61%,never,–
"brain natriuretic peptide [BNP, reference compound]",23%,–,–,–,–,–,–,–,–,–,–,–,–,–,–,–
